Experimental data: article PMC7093416, “Selective USP7 inhibition elicits cancer cell killing through a p53-dependent mechanism” (Scientific Reports, 2020)

Tested on: panel of 484 cancer cell lines
Assay: PRISM cancer cell line profiling, 5 days
Type: cell-based
Parameters: AUC: unit not given beside the values
Protocol: Cancer cell line profiling was performed using the Broad’s PRISM platform. Cell treatment and data analysis were performed as described in Yu et al[42]. Raw Luminex signal was converted to AUC values for each cell line as described. The resulting AUC profile for each compound was modeled against DepMap using the limma package in R[71]. Because hotspot mutation analysis was performed against DepMap, TP53 annotations in Fig. 6c,d are directly from DepMap.

CN1CCN(CCC(=O)Nc2ccc3c(=O)n(CC4(O)CCN(C(=O)[C@H](CCCNC(=O)c5ccc6c(Cl)c7c(nc6c5)CCCC7)Cc5ccccc5)CC4)cnc3c2)CC1 [XL177B]
AUC (HCC1438_LUNG): 0.9398
AUC (HCC1588_LUNG): 1.124
AUC (HCC1806_BREAST): 1.262
AUC (HCC1937_BREAST): 0.9651
AUC (HCC4006_LUNG): 1.102
AUC (HCT15_LARGE_INTESTINE): 1.193
AUC (HCT116_LARGE_INTESTINE): 1.02
AUC (HDQP1_BREAST): 0.9999
AUC (HEC1A_ENDOMETRIUM): 1.104
AUC (HEC1B_ENDOMETRIUM): 1.096
AUC (HEC6_ENDOMETRIUM): 1.02
AUC (HEC59_ENDOMETRIUM): 1.13
AUC (HEC108_ENDOMETRIUM): 0.935
AUC (HEC151_ENDOMETRIUM): 0.9419
AUC (HEC251_ENDOMETRIUM): 0.8279
AUC (HEC265_ENDOMETRIUM): 0.8825
AUC (HEP3B217_LIVER): 1.23
AUC (HEYA8_OVARY): 1.2
AUC (HGC27_STOMACH): 1.226
AUC (HLF_LIVER): 0.794
AUC (HMC18_BREAST): 1.228
AUC (HOS_BONE): 1.145
AUC (HPAC_PANCREAS): 1.288
AUC (HS294T_SKIN): 1.038
AUC (HS618T_LUNG): 1.097
AUC (HS729_SOFT_TISSUE): 1.1211
AUC (HS766T_PANCREAS): 1.2108
AUC (HS852T_SKIN): 1.089
AUC (HS939T_SKIN): 1.116
AUC (HS944T_SKIN): 1.026
AUC (HSC2_UPPER_AERODIGESTIVE_TRACT): 1.102
AUC (HSC3_UPPER_AERODIGESTIVE_TRACT): 1.094
AUC (HT29_LARGE_INTESTINE): 1.23
AUC (HT55_LARGE_INTESTINE): 1.212
AUC (HT144_SKIN): 1.106
AUC (HT1080_SOFT_TISSUE): 0.9733
AUC (HT1376_URINARY_TRACT): 0.9173
AUC (HUCCT1_BILIARY_TRACT): 1.078
AUC (HUH6_LIVER): 0.9719
AUC (HUH7_LIVER): 1.132
AUC (HUH28_BILIARY_TRACT): 1.093
AUC (HUPT3_PANCREAS): 1.102
AUC (IALM_LUNG): 1.165
AUC (IGR1_SKIN): 1.13
AUC (IGR37_SKIN): 1.06
AUC (IGROV1_OVARY): 0.9036
AUC (IM95_STOMACH): 0.9524
AUC (IPC298_SKIN): 1.071
AUC (ISHIKAWAHERAKLIO02ER_ENDOMETRIUM): 1.087
AUC (ISTMES1_PLEURA): 0.902
AUC (ISTMES2_PLEURA): 1.138
AUC (J82_URINARY_TRACT): 1.062
AUC (JHH1_LIVER): 0.9889
AUC (JHH4_LIVER): 0.8541
AUC (JHH5_LIVER): 1.201
AUC (JHH6_LIVER): 1.182
AUC (JHH7_LIVER): 1.125
AUC (JHOC5_OVARY): 1.064
AUC (JHOM1_OVARY): 1.08
AUC (JHOS2_OVARY): 1.281
AUC (JHUEM2_ENDOMETRIUM): 0.8483
AUC (JIMT1_BREAST): 0.9922
AUC (JMSU1_URINARY_TRACT): 1.004
AUC (K029AX_SKIN): 1.1273
AUC (KALS1_CENTRAL_NERVOUS_SYSTEM): 1.102
AUC (KELLY_AUTONOMIC_GANGLIA): 1.134
AUC (KMBC2_URINARY_TRACT): 0.9911
AUC (KMRC1_KIDNEY): 1.146
AUC (KMRC3_KIDNEY): 1.058
AUC (KMRC20_KIDNEY): 1.146
AUC (KNS42_CENTRAL_NERVOUS_SYSTEM): 1.1
AUC (KNS60_CENTRAL_NERVOUS_SYSTEM): 1.09
AUC (KNS62_LUNG): 1.118
AUC (KNS81_CENTRAL_NERVOUS_SYSTEM): 1.075
AUC (KP2_PANCREAS): 0.9926
AUC (KP3_PANCREAS): 1.089
AUC (KP4_PANCREAS): 0.9662
AUC (KPL1_BREAST): 1.217
AUC (KU1919_URINARY_TRACT): 0.9667
AUC (KYSE30_OESOPHAGUS): 1.063
AUC (KYSE70_OESOPHAGUS): 1.0546
AUC (KYSE140_OESOPHAGUS): 1.1657
AUC (KYSE150_OESOPHAGUS): 1.101
AUC (KYSE180_OESOPHAGUS): 1.135
AUC (KYSE270_OESOPHAGUS): 1.03
AUC (KYSE410_OESOPHAGUS): 1.091
AUC (KYSE510_OESOPHAGUS): 1.034
AUC (KYSE520_OESOPHAGUS): 1.133
AUC (L33_PANCREAS): 1.426
AUC (LC1SQSF_LUNG): 1.115
AUC (LCLC103H_LUNG): 1.231
AUC (LI7_LIVER): 0.9601
AUC (LK2_LUNG): 1.126
AUC (LMSU_STOMACH): 1.053
AUC (LN18_CENTRAL_NERVOUS_SYSTEM): 1.129
AUC (LN229_CENTRAL_NERVOUS_SYSTEM): 1.034
AUC (LNCAPCLONEFGC_PROSTATE): 0.9173
AUC (LOUNH91_LUNG): 1.097
AUC (LOVO_LARGE_INTESTINE): 1.325
AUC (LOXIMVI_SKIN): 1.09
AUC (LS180_LARGE_INTESTINE): 1.075
AUC (LS411N_LARGE_INTESTINE): 1.3262
AUC (LS513_LARGE_INTESTINE): 1.3335
AUC (LS1034_LARGE_INTESTINE): 1.506
AUC (LU99_LUNG): 0.9959
AUC (LUDLU1_LUNG): 0.9789
AUC (LXF289_LUNG): 1.119
AUC (MALME3M_SKIN): 0.9879
AUC (MCAS_OVARY): 1.03
AUC (MCF7_BREAST): 1.188
AUC (MDAMB175VII_BREAST): 1.1488
AUC (MDAMB231_BREAST): 1.063
AUC (MDAMB435S_SKIN): 1.117
AUC (MDAMB436_BREAST): 1.147
AUC (MDAMB468_BREAST): 1.0692
AUC (MELHO_SKIN): 1.016
AUC (MELJUSO_SKIN): 1.072
AUC (MESSA_SOFT_TISSUE): 0.9027
AUC (MEWO_SKIN): 1.126
AUC (MFE280_ENDOMETRIUM): 1.168
AUC (MFE296_ENDOMETRIUM): 1.031
